Measured values reported in US5120764A, “Inhibitors of lysyl oxidase” (Merrell Dow Pharmaceuticals Inc., priority 1988, dated 1992).
Structures can show the parent of a compound that is named as a salt.

Target: T1, lysyl oxidase (Bos taurus, UniProt P33072)
T1 sequence (P33072 170-418): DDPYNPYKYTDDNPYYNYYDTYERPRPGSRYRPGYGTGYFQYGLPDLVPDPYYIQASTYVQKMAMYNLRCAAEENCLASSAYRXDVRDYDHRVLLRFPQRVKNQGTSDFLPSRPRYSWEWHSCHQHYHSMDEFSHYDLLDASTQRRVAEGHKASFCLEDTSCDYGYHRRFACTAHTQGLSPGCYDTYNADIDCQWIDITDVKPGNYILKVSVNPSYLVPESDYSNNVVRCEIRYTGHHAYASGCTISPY
Assay: Lysyl oxidase inhibition (fluorometric assay, cadaverine substrate, horseradish peroxidase/homovanillic acid)
Assay type: biochemical
Details: lysyl oxidase preparation from bovine aorta, 55° C., 10 minutes, pH 8.2 borate buffer, read-out: IC50 (concentration of test compound required to inhibit the enzyme activity by 50 percent)
Procedure: Lysyl oxidase preparation is obtained from bovine aorta by the procedures modified from M. A. Williams and H. M. Kagan, Anal. Biochem. 149, 430-437 (1985) and H. M. Kagan and K. A. Sullivan, Methods in Enzyml. 82, 637-650 (1982). The aorta is obtained fresh on the day of the enzyme preparation and is maintained at 4° C. for the duration of its use in the experiments. The aorta is ground fine and is homogenized for 90 seconds in buffer (2.5 ml of a buffer consisting of 16 mM potassium phosphate and 1 mM phenylmethylsulfonyl fluoride/g of tissue) with 0.15M NaCl added, then the mixture is centrifuged (20 minutes at 11,000×g). The homogenization followed by centrifugation procedure is repeated with buffer plus 0.15 M NaCl, buffer alone, and buffer plus 1M urea. After homogenization in 1M urea, the mixture is stirred for 1 hour prior to centrifugation. The resulting pellet is homogenized in buffer plus 4M urea, stirred for 18 hours, and centrifuged. The supernatant with lysyl oxidase activity is saved. The tissue is homogenized in buffer plus 4M urea, stirred overnight, and centrifuged twice more. The supernatants with lysyl oxidase activity are saved.
The assay is adopted from that of P. C. Trackman, et al., Anal. Biochem. 113, 336-342 (1981). Each assay consists of two tubes, one that contains 0.2 mM β-aminopropionitrile, BAPN, from the start and one to which BAPN is added to quench the reaction. Lysyl oxidase preparation (0.150 ml), urea (0.300 ml, 4M), buffer (0.930 ml, 200 mM borate at pH =8.2), homovanillic acid (0.020 ml of 50 mM solution), and horseradish peroxidase (0.010 ml of Sigma Type II at 5 mg/ml protein) are incubated for 2 minutes at 55° C. in a test tube. Cadaverine (0.100 ml of 150 mM) and test compound, if any, is added and the incubation continued at 55° C. for an additional 10 minutes. The test tubes containing this mixture are then cooled in a ice bath after adding BAPN to any tubes not containing it. The difference in fluorescence (excitation 315 nm and emission 425 nm) between corresponding tubes that received BAPN at 0 minutes and at 10 minutes is a measure of enzyme activity. A standard curve to determine the amount of cadaverine converted by lysyl oxidase is prepared as follows. Assay mixtures containing BAPN are made up as described and known amounts of hydrogen peroxide are added simultaneously with cadaverine and the fluorescence changes after 10 minutes reaction are determined.
Using this method the lysyl oxidase inhibiting activity expressed as IC50 (inhibitory concentration), that is the concentration of test compound required to inhibit the enzyme activity by 50 percent, was determined for various compounds of this invention.

Compound	IC50
C=C=C(CN)CCCCCC [β-Ethenylidene-1-Octanamine Hydrochloride]	1 nM
C=C=C(CN)c1cccs1 [β-Ethenylidene-2-Thiopheneethanamine-4-Methylbenzenesulfonate]	10 nM
C=C=C(CN)c1ccc(OC)cc1 [β-Ethenylidene-4-Methoxybenzeneethanamine-4-Methylbenzenesulfonate]	10 nM
C=C=C(CN)CCc1ccccc1 [β-Ethenylidenebenzenebutanamine Hydrochloride]	1 nM
C=C=C(CN)CCCc1ccccc1 [β-Ethenylidenebenzenepentanamine Hydrochloride]	1 nM
C=C=C(CN)c1cc2ccccc2s1 [β-Ethylenylidene-Benzo[β]Thiophene-2-Ethanamine Hydrochloride]	10 nM
